Assay results published in patent publication US20210386733A1, “LYSINE-SPECIFIC HISTONE DEMETHYLASE INHIBITORS FOR THE TREATMENT OF MYELOPROLIFERATIVE NEOPLASMS” (Imago Biosciences, Inc., priority 2019, published 2021).
Where a name gives a salt, the structure may show the parent alone.

Columns and labels:
[1] = Non-clinical studies of acute toxicity; format: in vivo; conditions: even at extremely high doses (human equivalent dose (HED) ˜20-40 mg/kg)
patients with MF = assay: Safety / adverse events in the clinical studies (31 subjects); format: in vivo
Description: Safety. […] Four SAEs attributed to Compound 1 (all Grade 3), including painful splenomegaly, headache, nausea and vomiting, and heart failure. There were 139 AEs of all grades attributed to Compound 1. The most common AEs across the 31 subjects from both of the above studies were thrombocytopenia (11 subjects, 35%), anemia (3 subjects, 10%) and nausea (1, 3%). The most common grade 3/4 AEs attributed to Compound 1 were Anemia (6 subjects, 19%) and neutropenia (3 subjects, 10%).
Management of Study Toxicities. Adverse event intensity will be evaluated using the National Cancer Institute (NCI) Common Terminology Criteria for Adverse Events (CTCAE) version 4.03, published 14 Jun. 2010.

[2] = tested on: patients with high-risk MF; assay: Phase 1/2A clinical trial of Compound 1 in myelofibrosis (Example 1); format: in vivo, human
Description: A multi-center, open-label study evaluating the safety, tolerability, steady-state pharmacokinetics and pharmacodynamics of Compound 1 administered orally once daily in patients with high-risk MF, including primary myelofibrosis (PMF), post-polycythemia vera myelofibrosis (PPV-MF), and post-essential thrombocythemia myelofibrosis (PET-MF) (collectively referred to as ‘MF’) was initiated as a Phase 1/2A study, and was expanded to a Phase 2b study.
The Phase 1/2A portion of the study assessed: the safety of the original starting dose, 0.25 mg/kg/d; an 85-day duration of treatment with a subsequent washout period of up to 28 days; and, pharmacokinetic and drug concentration measurements. […] With transition to a Phase 2b study, changes supported by the earlier pharmacokinetic and pharmacodynamic studies and safety assessments were implemented, including: an increased starting dose of 0.5 mg/kg/d with larger titration increments; a 168-day (24 week) duration of treatment, with continuous dosing via removal of the washout period; elimination of PK and drug concentration sampling; and, a reduced visit schedule.
This study was conducted at multiple sites. Up to 50 patients, eighteen years of age or older, with high-risk myelofibrosis were treated. The primary objectives included safety and tolerability, pharmacokinetics (PK; Phase 1/2A only) and spleen volume reduction (SVR). […] Key inclusion criteria included: high- or intermediate-2 risk myelofibrosis; per the Investigator's judgment have failed (refractory or resistant to, inadequately controlled by or intolerant of), or are not a candidate for, available approved therapy including ruxolitinib; platelet count≥100K/μL; and, circulating blasts ≤10%.
In the Phase 1/2a portion of the study, patients started at the presumed sub-therapeutic dose of 0.25 mg/kg/d. Dose-adjustments were made weekly (the lifespan of a human platelet) with dose-titration, either upward or downward, contingent on platelet values at the time of evaluation. Upward titrations were made in increments of 0.125 or 0.0625 mg/kg/d as shown below. Downward titrations were made in decrements of 50% of the current dose. […] The titration target platelet count expected to be associated with most efficacious therapeutic effect was ≥50,000 to <100,000/μL (50-100×10^9/L). The Phase 1/2a titration and re-challenge rules based on weekly evaluation of platelet counts are noted below in Table 1.
All but one patient had received one or more prior treatments including ruxolitinib. 48% had PMF, 33% PET-MF, 19% PPV-MF. The median patient age was 65 years (48-89) with 58% males. 48% were classified as high risk (IPSS), the remainder, intermediate risk-2. […] A substantial fraction of the patients had ≥3 mutations. Patients were treated daily for 12 weeks, in accordance with above starting dose and titration rules, followed by a washout period of up to 28 days. Starting platelet counts ranged from about 141 to about 1309 k/μL. Bone marrow biopsies and imaging studies of the abdomen were conducted prior to treatment and during the washout period after 12 weeks of dosing. Grading of myelofibrosis was performed centrally using the 2016 revised World Health Organization classification of myeloid neoplasia (Arber et al., 2016); image reading was also performed centrally. The Myeloproliferative Neoplasm Symptom Assessment Form (MPN-SAF) was self-administered at Baseline and weekly from Day 0 through the End of Study (EoS) Visit. Total symptom scores were derived from this tool. Patients for whom clinical benefit was demonstrable could resume treatment for additional 12-week cycles.

[3] = 13 patients with biopsies, Day 0 to Day 84 or EoT
[4] = of the 3 with Hb>10 g/dL at day 0, day 84
[5] = of the 6 transfusion-independent patients with Hb<10 g/dL
[6] = of the 9 transfusion-dependent patients, day 84

Question: With `CN1CCN(C(=O)[C@H](CCCN[C@@H]2C[C@H]2c2ccc(F)cc2)NC(=O)c2ccc(-n3ccnn3)cc2)CC1` [Compound 1, N-[(2S)-5-{[(1R, 2S)-2-(4-fluorophenyl)cyclopropyl]amino}-1-(4-methylpiperazin-1-yl)-1-oxopentan-2-yl]-4-(1H-1,2,3-triazol-1-yl)benzamide, bis-tosylate salt] as the molecule, how does the “acute toxicity in non-clinical studies” value [1] read?
Answer: The value was “no evidence”.

Question: What about the “subjects with grade 3/4 Anemia attributed to Compound 1” value (patients with MF; 31 subjects) of the same molecule?
Answer: Its value is 19%.

Question: And the “subjects with grade 3/4 neutropenia attributed to Compound 1” value (patients with MF; 31 subjects)?
Answer: The value was 10%.

Question: What about the “subjects with anemia (most common AEs)” value (patients with MF; 31 subjects from both studies) of the same molecule?
Answer: Its value is 10%.

Question: And the “subjects with nausea (most common AEs)” value (patients with MF; 31 subjects from both studies)?
Answer: The value was 3%.

Question: What about the “subjects with thrombocytopenia (most common AEs)” value (patients with MF; 31 subjects from both studies) of the same molecule?
Answer: The value was 35%.

Question: What about the tolerability (patients with MF; MF patients) of the same molecule?
Answer: The tolerability was “well tolerated”.

Question: What about the “SAEs attributed to Compound 1” value (patients with MF; all Grade 3: painful splenomegaly, headache, nausea and vomiting, heart failure) of the same molecule?
Answer: The value was “Four”.

Question: And the “AEs of all grades attributed to Compound 1” value (patients with MF; human, in vivo)?
Answer: Its value is 139.

Question: And the “deaths or dose-limiting toxicities” value (patients with MF; throughout the course of the study)?
Answer: The value was “no deaths or dose-limiting toxicities”.

Question: And the “patients whose bone marrow fibrosis progressed by 1 Grade” value [2, 3]?
Answer: Its value is 23%.

Question: What about the “patients with a stable bone marrow fibrosis score” value [2, 3] of the same molecule?
Answer: The value was 62%.

Question: What about the “patients with bone marrow fibrosis improvement of ≥1 grade” value [2, 3] of the same molecule?
Answer: The value was 15%.

Question: And the “28 days expressed in half-lives of the drug” value ([2]; at the doses used in this study)?
Answer: Its value is > 10 half-lives.

Question: What about the “spleen volume response (SVR) and total symptom score (TSS) compared with Best Available Treatment (BAT)” value ([2]; day 0 to day 84, BAT as in PERSIST-2 trial, FIG. 3) of the same molecule?
Answer: Its value is “outperformed the BAT”.

Question: And the “effect on myelofibrosis symptoms” value ([2]; evaluable patients N=14, preliminary analysis)?
Answer: Its value is “profound effect”.

Question: And the “range of total daily dose needed to achieve a platelet count in the target range” value ([2]; excluding highest and lowest doses)?
Answer: Its value is 53 to 90 mg.

Question: And the “mean total daily dose needed to achieve a platelet count in the target range” value ([2]; excluding highest and lowest doses (4 mg and 100 mg), target 50,000-75,000 platelets per microliter, S.D. 13.8)?
Answer: The value was 78.3 mg.

Question: What about the “mean therapeutic dose per body weight” value ([2]; first sixteen patients, assuming an average weight of 75 kg) of the same molecule?
Answer: Its value is 0.85 mg/kg/day.

Question: What about the “overall efficacy on spleen volumes and symptom scores” value ([2]; heterogeneous population of MF patients with limited therapeutic options) of the same molecule?
Answer: The value was “effective in reducing spleen volumes and substantially improving symptom scores in a majority of patients”.

Question: What about the “improvements in symptom scores” value ([2]; human, in vivo) of the same molecule?
Answer: Its value is “generally dose-dependent and rapid”.

Question: And the “levels of CCL3, IL-6, IL-10, IL-33, IL-28A, IFNβ, IFNα, IFNγ” value ([2]; in the course of treatment)?
Answer: The value was “not elevated in any patient”.

Question: What about the “patients with improved Hb (increase of Hb>1 g/dL)” value [2, 4] of the same molecule?
Answer: Its value is 1 patients.

Question: What about the “patients with worsened Hb (decrease of Hb>1 g/dL)” value [2, 4] of the same molecule?
Answer: The value was 2 patients.

Question: And the “patients who remained stable (Hb)” value [2, 5]?
Answer: Its value is 3 patients.

Question: And the “patients who worsened (became transfusion dependent or Hb drop by >1 g/dL)” value [2, 5]?
Answer: The value was 2 patients.

Question: What about the “patients with improved Hb” value [2, 5] of the same molecule?
Answer: The value was 1 patients.

Question: What about the “patients who became transfusion-independent and had improved Hb of >1 g/dL” value ([2]; of the 9 transfusion-dependent patients (Hb<10 g/dL), day 84) of the same molecule?
Answer: Its value is 1 patients.

Question: What about the “patients who maintained stable transfusion frequency” value [2, 6] of the same molecule?
Answer: The value was 8 patients.

Question: What about the “patients with increased transfusion frequency” value [2, 6] of the same molecule?
Answer: Its value is “one”.

Question: What about the lymphocytes counts ([2]; on treatment) of the same molecule?
Answer: Its lymphocytes counts is “unchanged”.

Question: What about the monocyte counts ([2]; on treatment) of the same molecule?
Answer: Its monocyte counts is “generally modestly elevated”.

Question: What about the peripheral granulocyte counts ([2]; on treatment) of the same molecule?
Answer: Its peripheral granulocyte counts is “lower”.

Question: And the platelet counts ([2]; on treatment)?
Answer: The platelet counts was “reduced platelet counts in all patients”.

Question: And the “mean dose needed to achieve and safely maintain the target platelet count (therapeutic dose)” value ([2]; re-analysis of first sixteen patients)?
Answer: The value was 63.8 mg/day.

Question: And the “platelet counts after cessation of treatment” value ([2]; reversibility of the anti-thrombopoietic effect)?
Answer: The value was “rebounded robustly”.

Question: And the “percent of F-cells (fetal hemoglobin containing erythrocytes)” value ([2]; six patients, FIG. 10)?
Answer: Its value is “reduced the percent of F-cells”.

Question: And the “patients with reduction in symptom score (MPN-10)” value ([2]; week 12)?
Answer: The value was 79%.

Question: And the “patients with reduction in symptom score by ≥50%” value ([2]; week 12)?
Answer: Its value is 21%.

Question: What about the “inflammatory cytokine S100A9” value ([2]; week 12, FIG. 4) of the same molecule?
Answer: Its value is “generally decreased”.

Question: And the “inflammatory cytokine RANTES” value ([2]; week 12, FIG. 5)?
Answer: Its value is “generally decreased”.

Question: And the “inflammatory cytokine IL-8” value ([2]; week 12, FIG. 6)?
Answer: Its value is “generally decreased”.

Question: What about the “circulating growth factor VEGF” value ([2]; week 12, FIG. 7) of the same molecule?
Answer: Its value is “generally decreased”.

Question: And the “circulating growth factor PDGF-BB” value ([2]; week 12, FIG. 8)?
Answer: Its value is “generally decreased”.

Question: What about the “patients with a decrease in spleen volume” value ([2]; week 12, evaluable N=14) of the same molecule?
Answer: Its value is 50%.

Question: And the “patients with a decrease in spleen volume” value ([2]; week 24)?
Answer: The value was 75%.

Question: And the “patients with a decrease in spleen volume by 35%” value ([2]; week 24)?
Answer: The value was 12.5%.

Question: What about the “patients with a decrease in symptom score” value ([2]; week 24) of the same molecule?
Answer: The value was 89%.

Question: And the “patients with a decrease in symptom score by ≥50%” value ([2]; week 24)?
Answer: Its value is 44%.

Question: What about the “patients with improved scores of fatigue” value ([2]; within 14 days, at the lowest two doses) of the same molecule?
Answer: The value was 8 of the first 16 patients.
